# In patent US7253187B2, “Heterocyclic inhibitors of ERK2 and uses thereof” (Vertex Pharmaceuticals Incorporated, priority 2001, dated 2007):
# Target: ERK2 (Homo sapiens, UniProt P28482)
# Experiment: ERK2 inhibition assay (spectrophotometric coupled-enzyme assay)
# Type: biochemical
# Conditions: ERK2 Inhibitory Activity (Ki class D-F)
# Protocol: The IC50 was evaluated from the rate data as a function of inhibitor concentration. […] The compound numbers correspond to the compound numbers in Table 1.
# Chain of ERK2 (P28482 whole entry): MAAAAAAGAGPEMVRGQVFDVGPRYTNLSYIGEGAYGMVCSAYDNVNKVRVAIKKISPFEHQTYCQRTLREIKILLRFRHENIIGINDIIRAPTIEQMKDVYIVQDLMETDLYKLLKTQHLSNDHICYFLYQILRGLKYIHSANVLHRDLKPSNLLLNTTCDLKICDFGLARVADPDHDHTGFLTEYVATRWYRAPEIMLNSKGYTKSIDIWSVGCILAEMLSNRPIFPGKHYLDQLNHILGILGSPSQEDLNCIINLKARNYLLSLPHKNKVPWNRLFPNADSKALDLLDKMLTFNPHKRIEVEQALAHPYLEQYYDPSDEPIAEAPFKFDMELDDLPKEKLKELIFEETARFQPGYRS
row,SMILES,Ki
1,"Cc1cnc(Nc2nc(N3CCCCC3)nc3ccccc23)nc1-c1c[nH]c(C(=O)NCc2ccccc2)c1 [III-a-133, 4-[5-Methyl-2-(2-piperidin-1-yl-quinazolin-4-ylamino)-pyrimidin-4-yl]-1H-pyrrole-2-carboxylic acid benzylamide]",> 1000 nM

# Same assay, conditions: read-out: ERK2 Inhibitory Activity (Ki class D-F)
row,SMILES,Ki
1,"CCNc1ncc(C)c(-c2c[nH]c(C(=O)NC(CO)C(O)c3ccccc3)c2)n1 (stereo not shown) [III-a-170, 4-(2-Ethylamino-5-methyl-pyrimidin-4-yl)-1H-pyrrole-2-carboxylic acid (2-hydroxy-1-hydroxymethyl-2-phenyl-ethyl)-amide]",> 1000 nM
2,"CC(C(O)c1ccccc1)N(C)C(=O)c1cc(-c2ccnc(N)n2)c[nH]1 (stereo not shown) [III-a-180, 4-(2-Amino-pyrimidin-4-yl)-1H-pyrrole-2-carboxylic acid (2-hydroxy-1-methyl-2-phenyl-ethyl)-methyl-amide]",> 1000 nM
3,"CCNc1ncc(C)c(-c2c[nH]c(C(=O)NC(CO)C(O)c3ccccc3)c2)n1 (stereo not shown) [III-a-171, 4-(2-Ethylamino-5-methyl-pyrimidin-4-yl)-1H-pyrrole-2-carboxylic acid (2-hydroxy-1-hydroxymethyl-2-phenyl-ethyl)-amide]",> 1000 nM
4,"CCNc1ncc(C)c(-c2c[nH]c(C(=O)NC(C)C(O)c3ccccc3)c2)n1 (stereo not shown) [III-a-168, 4-(2-Ethylamino-5-methyl-pyrimidin-4-yl)-1H-pyrrole-2-carboxylic acid (2-hydroxy-1-methyl-2-phenyl-ethyl)-amide]",> 1000 nM
5,"Cc1cnc(NC2CC2C)nc1-c1c[nH]c(C(=O)NC(CO)c2ccccc2)c1 (stereo not shown) [III-a-237, 4-[5-Methyl-2-(2-methyl-cyclopropylamino)-pyrimidin-4-yl]-1H-pyrrole-2-carboxylic acid (2-hydroxy-1-phenyl-ethyl)-amide]",< 100 nM
6,"O=C(NCc1ccc2c(c1)OCO2)c1cc(-c2nc(Nc3ccccc3)ncc2-c2cc(Cl)cc(Cl)c2)c[nH]1 [III-a-103, 4-[5-(3,5-Dichloro-phenyl)-2-phenylamino-pyrimidin-4-yl]-1H-pyrrole-2-carboxylic acid (benzo[1,3]dioxol-5-ylmethyl)-amide]",> 1000 nM
7,"Cc1cnc(N)nc1-c1c[nH]c(C(=O)NCCc2cccnc2)c1 [III-a-107, 4-(2-Amino-5-methyl-pyrimidin-4-yl)-1H-pyrrole-2-carboxylic acid (2-pyridin-3′-yl-ethyl)-amide]",> 1000 nM
8,"CCNc1ncc(C)c(-c2c[nH]c(C(=O)NC(C(C)=O)c3ccccc3)c2)n1 (stereo not shown) [III-a-197, 4-(2-Ethylamino-5-methyl-pyrimidin-4-yl)-1H-pyrrole-2-carboxylic acid (2-oxo-1-phenyl-propyl)-amide]",> 1000 nM
9,"Cc1cnc(NC(CO)CO)nc1-c1c[nH]c(C(=O)NC(CO)c2ccccc2)c1 (stereo not shown) [III-a-235, 4-[2-(2-Hydroxy-1-hydroxymethyl-ethylamino)-5-methyl-pyrimidin-4-yl]-1H-pyrrole-2-carboxylic acid (2-hydroxy-1-phenyl-ethyl)-amide]",< 100 nM
10,"CCNc1ncc(C)c(-c2c[nH]c(C(=O)NC3CC3)c2)n1 [III-a-114, 4-(2-Ethylamino-5-methyl-pyrimidin-4-yl)-1H-pyrrole-2-carboxylic acid cyclopropylamide]",> 1000 nM
11,"COCc1cnc(Nc2ccccc2)nc1-c1c[nH]c(C(=O)NC(CO)c2ccccc2)c1 (stereo not shown) [III-a-160, 4-(5-Methoxymethyl-2-phenylamino-pyrimidin-4-yl)-1H-pyrrole-2-carboxylic acid (2-hydroxy-1-phenyl-ethyl)-amide]",100 to 1000 nM

# The remaining lines, values ahead:
row,Ki,SMILES
1,< 100 nM,"CCONc1ncc(C)c(-c2c[nH]c(C(=O)N[C@H](CO)c3ccccc3)c2)n1 [III-a-195, 4-(2-Ethoxyamino-5-methyl-pyrimidin-4-yl)-1H-pyrrole-2-carboxylic acid (2-hydroxy-1-phenyl-ethyl)-amide]"
2,< 100 nM,"Cc1cnc(NCc2cccnc2)nc1-c1c[nH]c(C(=O)NC(CO)c2ccccc2)c1 (stereo not shown) [III-a-219, 4-{5-Methyl-2-[(pyridin-3-ylmethyl)-amino]-pyrimidin-4-yl}-1H-pyrrole-2-carboxylic acid (2-hydroxy-1-phenyl-ethyl)-amide]"
3,< 100 nM,"Cc1cnc(NN(C)C)nc1-c1c[nH]c(C(=O)N[C@H](CO)c2ccccc2)c1 [III-a-226, 4-[2-(N′,N′-Dimethyl-hydrazino)-5-methyl-pyrimidin-4-yl]-1H-pyrrole-2-carboxylic acid (2-hydroxy-1-(S)-phenyl-ethyl)-amide]"
4,100 to 1000 nM,"CCNc1ncc(C)c(-c2c[nH]c(C(=O)NC(CO)c3ccccc3F)c2)n1 (stereo not shown) [III-a-192, 4-(2-Ethylamino-5-methyl-pyrimidin-4-yl)-1H-pyrrole-2-carboxylic acid [1-(2-fluoro-phenyl)-2-hydroxy-ethyl]-amide]"
5,< 100 nM,"CCC(CO)Nc1ncc(C)c(-c2c[nH]c(C(=O)NC(CO)c3ccccc3)c2)n1 (stereo not shown) [III-a-236, 4-[2-(1-Hydroxymethyl-propylamino)-5-methyl-pyrimidin-4-yl]-1H-pyrrole-2-carboxylic acid (2-hydroxy-1-phenyl-ethyl)-amide]"
6,< 100 nM,"Cc1cnc(Nc2ccon2)nc1-c1c[nH]c(C(=O)NC(CO)c2ccccc2)c1 (stereo not shown) [III-a-221, 4-[2-(Isoxazol-3-ylamino)-5-methyl-pyrimidin-4-yl]-1H-pyrrole-2-carboxylic acid (2-hydroxy-1-phenyl-ethyl)-amide]"
7,< 100 nM,"Cc1cnc(Nc2ccccc2)nc1-c1c[nH]c(C(=O)NCCCc2ccccc2)c1 [III-a-112, 4-(5-Methyl-2-phenylamino-pyrimidin-4-yl)-1H-pyrrole-2-carboxylic acid (3-phenyl-propyl)-amide]"
8,< 100 nM,"CCCNC(=O)c1cc(-c2nc(Nc3ccccc3)ncc2C)c[nH]1 [III-a-111, 4-(5-Methyl-2-phenylamino-pyrimidin-4-yl)-1H-pyrrole-2-carboxylic acid propylamide]"
9,100 to 1000 nM,"CCOC(=O)NNc1ncc(C)c(-c2c[nH]c(C(=O)N[C@H](CO)c3ccccc3)c2)n1 [III-a-218, N′-{4-[5-(2-Hydroxy-1-phenyl-ethylcarbamoyl)-1H-pyrrol-3-yl]-5-methyl-pyrimidin-2-yl}-hydrazinecarboxylic acid ethyl ester]"
10,< 100 nM,"CCC(CO)Nc1ncc(C)c(-c2c[nH]c(C(=O)NC(CO)c3cccc(C)c3)c2)n1 (stereo not shown) [III-a-234, 4-[2-(1-Hydroxymethyl-propylamino)-5-methyl-pyrimidin-4-yl]-1H-pyrrole-2-carboxylic acid (2-hydroxy-1-m-tolyl-ethyl)-amide]"
11,< 100 nM,"CCCNc1ncc(C)c(-c2c[nH]c(C(=O)NC(CO)c3ccccc3)c2)n1 (stereo not shown) [III-a-163, 4-(5-Methyl-2-propylamino-pyrimidin-4-yl)-1H-pyrrole-2-carboxylic acid (2-hydroxy-1-phenyl-ethyl)-amide]"
12,100 to 1000 nM,"Cc1cc(Nc2ncc(C)c(-c3c[nH]c(C(=O)NC(CO)c4ccccc4)c3)n2)no1 (stereo not shown) [III-a-229, 4-[5-Methyl-2-(5-methyl-isoxazol-3-ylamino)-pyrimidin-4-yl]-1H-pyrrole-2-carboxylic acid (2-hydroxy-1-phenyl-ethyl)-amide]"
13,100 to 1000 nM,"Cc1cnc(Nc2ccccc2)nc1-c1c[nH]c(C(=O)NCCN)c1 [III-a-120, 4-(5-Methyl-2-phenylamino-pyrimidin-4-yl)-1H-pyrrole-2-carboxylic acid (2-amino-ethyl)-amide]"
